Values of other authors as cited in patent publication US10888576B2, “Composition of HMB and ATP and methods of use” (Metabolic Technologies, Inc., priority 2018, dated 2021).

Tests used:
[1] = test system: skeletal muscle; conditions: acute ingestion of 2.4 grams; cited from earlier work
[2] = after HMB is fed; cited from earlier work
[3] = after administration; cited from earlier work

With CC(C)(O)CC(=O)O [HMB-FA, β-hydroxy-β-methylbutyric acid] as the molecule, how does the “change in protein breakdown” value [1] read?
The value was −56%.

What about the “change in skeletal muscle protein synthesis” value [1] of the same molecule?
Its value is “+70%”.

What about the “loss of HMB to urine” value [2] of the same molecule?
Its value is 20-50%.

And the “plasma levels of HMB compared with calcium HMB” value [3]?
Its value is “approximately double the plasma levels of HMB”.

And the “time to plasma levels compared with calcium HMB” value [3]?
The value was “about one-quarter the time”.
